Results from PubChem BioAssay AID1918947 (Molecular Pharmacology Branch, DTP, NCI, 2023).

Test system: A498 complex spheroid viability
Assay: Anticancer human tumor A498 cell line growth inhibition;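 note: spheroids exposed to agents for seven days before readout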;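 for viability, T/C: 100% = DMSO vehicle-treated spheroids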
Settings: curve of first compound; second compound 0.1 µM
Description: Multicellular complex tumor spheroid response to LSD1 Inhibitor Iadademstat in combination with a variety of drugs and investigational agents in selected tumor cell lines
The current study was undertaken to assess response to LSD1 inhibitors in combination with standard-of-care drugs and investigational agents in solid tumor complex spheroid models as well as in the K-562 leukemia. Complex spheroids include a stromal component modeled by human endothelial cells (HUVEC) and fibroblasts modeled by human mesenchymal stem cells (MSCs). The concentration ranges selected for each drug and investigational agent were based upon clinically achievable concentrations if the clinical Cmax of the agent was known.
Compounds. The drugs and investigational agents used in this study are listed on Table 1. All of the agents used, including staurosporine (NSC755774) and gemcitabine (NSC613327), were obtained from the Developmental Therapeutics Program, NCI. FDA-approved anticancer drugs are available from the NCI at http://dtp.nci.nih.gov/branches/dscb/oncology_drugset_explanation.html. Drugs and investigational agents were >95% pure by proton nuclear magnetic resonance (NMR) and liquid chromatography/mass spectrometry (LC/MS). Stock solutions were prepared at 400x in DMSO, stored at -70 degrees C, and diluted in fresh medium prior to their use. The final concentration of DMSO in cell culture wells never exceeded 0.25% (v/v). The FDA-approved anticancer drug set is available from the Developmental Therapeutics Program at https://dtp.cancer.gov/organization/dscb/obtaining/available_plates.htm. All drugs and investigational agents were tested over a range starting from a high concentration at or near the clinical Cmax and decreasing in half-log increments. If the clinical Cmax for an agent had not been determined, the highest concentration tested was 10 microM.
Cell Lines. The patient-derived cancer cell (PDC) lines: 292921-168-R-J2-PDC, K24384-001-R-PDC, and 521955-158-R2-J5-PDC pancreatic carcinomas, 556581-035-R-J1 ovarian carcinoma, 324938-238-R-J1-PDC, 855422-203-R-J1-PDC and 883617-216-R-J1-PDC urothelial bladder carcinomas, 743489-274-T-PDC renal cell carcinoma, 138582-R-J1 Merkel cell tumor, K60290-347-R-J1 and K57222-313-R-J1-PDC glioblastomas, 653999-131-R-J2-PDC, LG0703-F948-PDC, and 349418-098-R-PDC non-small cell lung carcinomas, 885512-296-R-J2-PDC, 171881-019-R-J1-PDC breast carcinomas and 186277-243-T-J2-PDC and 233499-124-R-J2-PDC colon carcinomas were obtained from the NCI Patient-Derived Models Repository (PDMR, https://pdmr.cancer.gov). The established cell lines NCI/ADR-RES (RRID:CVCL_14520 and OVCAR-5 (RRID:CVCL_1628) ovarian carcinomas, 786-O (RRID:CVCL_1051) and A498 (RRID:CVCL_A498) renal cell carcinoma, NCI-H211 (ATCC, cat. CRL-5824; RRID:CVCL_1529), NCI-H196 (ATCC, cat. CRL-5823, RRID:CVCL_1509), SW 1271 (ATCC, cat. CRL-2177, RRID:CVCL_1716) and NCI-H1876 (ATCC, cat. CRL-5902, RRID:CVCL_1503) small cell lung carcinomas, MDA-MB-231 (RRID:CVCL_0062) and MDA-MB-468 (RRID:CVCL_0419)breast carcinomas (10-12). Pooled donor human umbilical vein endothelial cells (HUVEC, Lonza, cat. CC-2519) and human mesenchymal stem cells (hMSC, Lonza, cat. PT-2501) were purchased from Lonza (Walkersville, MD).
Cell Culture. All cells were maintained in an incubator at 37 degrees C and 5% CO2 with 95% humidity. The PDC lines were cultured according to standard operating procedures established by the NCI PDMR (https://pdmr.cancer.gov). Briefly all PDCs were thawed and cultured in Matrigel-coated flasks prepared with a working solution of 1X Ham's F-12 nutrient mix, without supplementation (Invitrogen, Waltham, MA, cat. 11765054), 100 U/mL penicillin-streptomycin (Invitrogen, cat. 15140122), and 2.5% Matrigel (Corning Inc., Corning, NY, cat. 354248) for the first three passages. […]

Compound | IC50 [nM]
COc1cc(C2c3cc4c(cc3C(OC3OC5COC(C)OC5C(O)C3O)C3COC(=O)C23)OCO4)cc(OC)c1O (stereo not given) + NC1CC1c1ccc(-c2cccc(O)c2)cc1 | 1800
Nc1ccccc1NC(=O)c1ccc(CNC(=O)OCc2cccnc2)cc1 + NC1CCC(NC2CC2c2ccccc2)CC1 | 203
O=C(C=Cc1cccc(S(=O)(=O)Nc2ccccc2)c1)NO + NC1CC1c1ccc(-c2cccc(O)c2)cc1 | 352
NS(=O)(=O)OCC1CC(n2ccc3c(NC4CCc5ccccc54)ncnc32)CC1O (stereo not given) + NC1CC1c1ccc(-c2cccc(O)c2)cc1 | 57.2

Same assay, conditions: curve of first compound; second compound 0.316 µM

Compound | IC50 [nM]
COc1cc(C2c3cc4c(cc3C(OC3OC5COC(C)OC5C(O)C3O)C3COC(=O)C23)OCO4)cc(OC)c1O (stereo not given) + NC1CC1c1ccc(-c2cccc(O)c2)cc1 | > 3000
Nc1ccccc1NC(=O)c1ccc(CNC(=O)OCc2cccnc2)cc1 + NC1CCC(NC2CC2c2ccccc2)CC1 | 222
O=C(C=Cc1cccc(S(=O)(=O)Nc2ccccc2)c1)NO + NC1CC1c1ccc(-c2cccc(O)c2)cc1 | 398
NS(=O)(=O)OCC1CC(n2ccc3c(NC4CCc5ccccc54)ncnc32)CC1O (stereo not given) + NC1CC1c1ccc(-c2cccc(O)c2)cc1 | 71

Same assay, conditions: curve of first compound; second compound 1 µM

Compound | IC50 [nM]
COc1cc(C2c3cc4c(cc3C(OC3OC5COC(C)OC5C(O)C3O)C3COC(=O)C23)OCO4)cc(OC)c1O (stereo not given) + NC1CC1c1ccc(-c2cccc(O)c2)cc1 | 1110
Nc1ccccc1NC(=O)c1ccc(CNC(=O)OCc2cccnc2)cc1 + NC1CCC(NC2CC2c2ccccc2)CC1 | 215
O=C(C=Cc1cccc(S(=O)(=O)Nc2ccccc2)c1)NO + NC1CC1c1ccc(-c2cccc(O)c2)cc1 | 325
NS(=O)(=O)OCC1CC(n2ccc3c(NC4CCc5ccccc54)ncnc32)CC1O (stereo not given) + NC1CC1c1ccc(-c2cccc(O)c2)cc1 | 78.6

Same assay, conditions: curve of first compound; second compound 3.16 µM

Compound | IC50 [nM]
COc1cc(C2c3cc4c(cc3C(OC3OC5COC(C)OC5C(O)C3O)C3COC(=O)C23)OCO4)cc(OC)c1O (stereo not given) + NC1CC1c1ccc(-c2cccc(O)c2)cc1 | 296
Nc1ccccc1NC(=O)c1ccc(CNC(=O)OCc2cccnc2)cc1 + NC1CCC(NC2CC2c2ccccc2)CC1 | 177
O=C(C=Cc1cccc(S(=O)(=O)Nc2ccccc2)c1)NO + NC1CC1c1ccc(-c2cccc(O)c2)cc1 | 364
NS(=O)(=O)OCC1CC(n2ccc3c(NC4CCc5ccccc54)ncnc32)CC1O (stereo not given) + NC1CC1c1ccc(-c2cccc(O)c2)cc1 | 76.4

Same assay, conditions: curve of first compound; second compound 10 µM

Compound | IC50 [nM]
COc1cc(C2c3cc4c(cc3C(OC3OC5COC(C)OC5C(O)C3O)C3COC(=O)C23)OCO4)cc(OC)c1O (stereo not given) + NC1CC1c1ccc(-c2cccc(O)c2)cc1 | 523
Nc1ccccc1NC(=O)c1ccc(CNC(=O)OCc2cccnc2)cc1 + NC1CCC(NC2CC2c2ccccc2)CC1 | 214
O=C(C=Cc1cccc(S(=O)(=O)Nc2ccccc2)c1)NO + NC1CC1c1ccc(-c2cccc(O)c2)cc1 | 343
NS(=O)(=O)OCC1CC(n2ccc3c(NC4CCc5ccccc54)ncnc32)CC1O (stereo not given) + NC1CC1c1ccc(-c2cccc(O)c2)cc1 | 46.3

Same assay, conditions: second compound 0.1 µM; first compound 0.00949 µM; stronger effect = lower value

Compound | viability, T/C [%]
COc1cc(C2c3cc4c(cc3C(OC3OC5COC(C)OC5C(O)C3O)C3COC(=O)C23)OCO4)cc(OC)c1O (stereo not given) + NC1CC1c1ccc(-c2cccc(O)c2)cc1 | 75.3
Nc1ccccc1NC(=O)c1ccc(CNC(=O)OCc2cccnc2)cc1 + NC1CCC(NC2CC2c2ccccc2)CC1 | 80.6
O=C(C=Cc1cccc(S(=O)(=O)Nc2ccccc2)c1)NO + NC1CC1c1ccc(-c2cccc(O)c2)cc1 | 105
NS(=O)(=O)OCC1CC(n2ccc3c(NC4CCc5ccccc54)ncnc32)CC1O (stereo not given) + NC1CC1c1ccc(-c2cccc(O)c2)cc1 | 99

Same assay, conditions: second compound 0.1 µM; first compound 0.03 µM; stronger effect = lower value

Compound | viability, T/C [%]
COc1cc(C2c3cc4c(cc3C(OC3OC5COC(C)OC5C(O)C3O)C3COC(=O)C23)OCO4)cc(OC)c1O (stereo not given) + NC1CC1c1ccc(-c2cccc(O)c2)cc1 | 68.7
Nc1ccccc1NC(=O)c1ccc(CNC(=O)OCc2cccnc2)cc1 + NC1CCC(NC2CC2c2ccccc2)CC1 | 76
O=C(C=Cc1cccc(S(=O)(=O)Nc2ccccc2)c1)NO + NC1CC1c1ccc(-c2cccc(O)c2)cc1 | 90.2
NS(=O)(=O)OCC1CC(n2ccc3c(NC4CCc5ccccc54)ncnc32)CC1O (stereo not given) + NC1CC1c1ccc(-c2cccc(O)c2)cc1 | 70.4

Same assay, conditions: second compound 0.1 µM; first compound 0.0949 µM; stronger effect = lower value

Compound | viability, T/C [%]
COc1cc(C2c3cc4c(cc3C(OC3OC5COC(C)OC5C(O)C3O)C3COC(=O)C23)OCO4)cc(OC)c1O (stereo not given) + NC1CC1c1ccc(-c2cccc(O)c2)cc1 | 62.1
Nc1ccccc1NC(=O)c1ccc(CNC(=O)OCc2cccnc2)cc1 + NC1CCC(NC2CC2c2ccccc2)CC1 | 65.8
O=C(C=Cc1cccc(S(=O)(=O)Nc2ccccc2)c1)NO + NC1CC1c1ccc(-c2cccc(O)c2)cc1 | 78.6
NS(=O)(=O)OCC1CC(n2ccc3c(NC4CCc5ccccc54)ncnc32)CC1O (stereo not given) + NC1CC1c1ccc(-c2cccc(O)c2)cc1 | 32.4

Same assay, conditions: second compound 0.1 µM; first compound 0.3 µM; stronger effect = lower value

Compound | viability, T/C [%]
COc1cc(C2c3cc4c(cc3C(OC3OC5COC(C)OC5C(O)C3O)C3COC(=O)C23)OCO4)cc(OC)c1O (stereo not given) + NC1CC1c1ccc(-c2cccc(O)c2)cc1 | 62.8
Nc1ccccc1NC(=O)c1ccc(CNC(=O)OCc2cccnc2)cc1 + NC1CCC(NC2CC2c2ccccc2)CC1 | 42.1
O=C(C=Cc1cccc(S(=O)(=O)Nc2ccccc2)c1)NO + NC1CC1c1ccc(-c2cccc(O)c2)cc1 | 49
